Results: patent US20250213701A1, “MEDICAMENT FOR TREATING HUMAN TUMOR BASED ON ERF3A-TARGETING PROTEOLYSIS MECHANISM” (SUZHOU DEGEN BIO-MEDICAL CO., LTD., priority 2022, published 2025)

How the values were obtained:
Type in all cases: cell-based, human
[1] = tested on: VCaP cells; experiment: Anti-proliferative toxicity against prostate cancer cell line Vcap (CCK8); conditions: Homo sapiens, 72 h, 3 days, CCK8
Summary of the method: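 VCaP cells (DMEM, 10% FBS) seeded 20000 cells/well, cultured 72 h, then exposed in triplicate to compound at final well concentrations of 0.00001–0.16 μM for 3 days at 37 °C, 5% CO2. Viability by CCK8, 1–4 h at 37 °C, absorbance at 450 nm.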

[2] = tested on: 22Rv1 cells; experiment: Anti-proliferative toxicity against prostate cancer cell line 22Rv1 (CCK8); conditions: Homo sapiens, 72 h, 3 days, CCK8
Summary of the method: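 22Rv1 cells pre-cultured for 48 h, then exposed to compounds at 0.00001-1.0 μM final, in triplicate, for 3 days. Viability read by CCK8 absorbance at 450 nm after 1-4 h at 37 °C.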

[3] = tested on: PC-3 cells; experiment: Anti-proliferative toxicity against prostate cancer cell line PC-3 (CCK8); conditions: Homo sapiens, 72 h, 3 days
Summary of the method: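 PC-3 cells (4000/well, pre-cultured 24 h) exposed in triplicate to compound at final 0.00001-1.0 μM for 3 days at 37 °C, 5% CO2. Viability read by CCK8, 1-4 h at 37 °C, absorbance at 450 nm.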

Row | Structure (SMILES) | IC50 [1] [nM] | IC50 [2] [nM] | IC50 [3] [nM]
1 | C[C@]12C=CC(=O)N[C@@H]1CC[C@@H]1[C@@H]2CC[C@]2(C)[C@@H](C(=O)Nc3cccc(N4CCC(CN5CCN(c6cccc7c6C(=O)N(C6CCC(=O)NC6=O)C7=O)CC5)CC4)c3)CC[C@@H]12 (stereo partly drawn) [C44, 1-(4-(1-(3-(3-oxo-4-aza-5α-androst-1-ene-17β-carboxamido)phenyl)piperidine))methyl-4-(4-(2-(3-(2,6-dioxopiperidine))-isoindole-1,3-dione))piperazine] | > 1000 | > 1000 | > 1000
2 | C[C@]12C=CC(=O)N[C@@H]1CC[C@@H]1[C@@H]2CC[C@]2(C)[C@@H](C(=O)Nc3cccc(OCCCCCCCCNc4cccc5c4C(=O)N(C4CCC(=O)NC4=O)C5=O)c3)CC[C@@H]12 (stereo partly drawn) [C39, N-(3-((8-((4-(2-(3-(2,6-dioxopiperidine))-isoindole-1,3-dione))amino)octyl)oxy)phenyl)-3-oxo-4-aza-5α-androst-1-ene-17β-carboxamide] | > 1000 | > 1000 | > 1000
3 | C[C@]12C=CC(=O)N[C@@H]1CC[C@@H]1[C@@H]2CC[C@]2(C)[C@@H](C(=O)Nc3ccc(OCCNc4ccc5c(c4)C(=O)N(C4CCC(=O)NC4=O)C5=O)nc3)CC[C@@H]12 (stereo partly drawn) [C47, N-(5-(2-((2-((5-(2-(3-(2,6-dioxopiperidine))-isoindole-1,3-dione))amino)ethyl)oxy)pyridine))-3-oxo-4-aza-5α-androst-1-ene-17β-carboxamide] | 10 to 1000 | 10 to 1000 | > 1000
4 | C[C@]12C=CC(=O)N[C@@H]1CC[C@@H]1[C@@H]2CC[C@]2(C)[C@@H](C(=O)Nc3ccc(OCCCCCCCNc4cccc5c4C(=O)N(C4CCC(=O)NC4=O)C5=O)cc3)CC[C@@H]12 (stereo partly drawn) [C23, N-(4-((7-((4-(2-(3-(2,6-dioxopiperidine))-isoindole-1,3-dione))amino)heptyl)oxy)phenyl)-3-oxo-4-aza-5α-androst-1-ene-17β-carboxamide] | > 1000 | > 1000 | > 1000
5 | C[C@]12C=CC(=O)N[C@@H]1CC[C@@H]1[C@@H]2CC[C@]2(C)[C@@H](C(=O)Nc3cccc(OCCNc4ccc5c(c4)C(=O)N(C4CCC(=O)NC4=O)C5=O)c3)CC[C@@H]12 (stereo partly drawn) [C28, N-(3-((2-((5-(2-(3-(2,6-dioxopiperidine))-isoindole-1,3-dione))amino)ethyl)oxy)phenyl)-3-oxo-4-aza-5α-androst-1-ene-17β-carboxamide] | > 1000 | > 1000 | > 1000
6 | C[C@]12C=CC(=O)N[C@@H]1CC[C@@H]1[C@@H]2CC[C@]2(C)[C@@H](C(=O)NCCCCCCCNc3cccc4c3C(=O)N(C3CCC(=O)NC3=O)C4=O)CC[C@@H]12 (stereo partly drawn) [C11, N-(7-((4-(2-(3-(2,6-dioxopiperidine))-isoindole-1,3-dione))amino)heptyl)-3-oxo-4-aza-5α-androst-1-ene-17β-carboxamide] | > 1000 | > 1000 | > 1000
